Measured values reported in patent US20260337153A1, “IONIZABLE AMINE LIPIDS” (Intellia Therapeutics, Inc., priority 2023, published 2026).

System: rat TTR gene
Assay: In vivo editing of TTR in rat liver after LNP delivery (NGS, % editing)
Design: species or system rat (Sprague-Dawley)
Protocol: LNPs were prepared using various amine lipids in a 4-component lipid system consisting of an ionizable lipid (e.g., an amine lipid), DSPC, cholesterol and a PEG lipid (e.g., PEG2K-DMG, C13 Ether, C14 Ether). In assays for percent liver editing in rats, Cas9 mRNA and chemically modified sgRNA targeting a rat sequence were formulated in LNPs, at either a 1:1 w/w ratio or a 1:2 w/w sgRNA:Cas9 mRNA ratio.
The lipid components were dissolved in 100% ethanol with the lipid component molar ratios described below. The chemically modified sgRNA and Cas9 mRNA were combined and dissolved in 25 mM citrate, 100 mM NaCl, pH 5.0, resulting in a concentration of total RNA cargo of approximately 0.45 mg/mL. The LNPs were formulated with an N:P ratio of about 6, with the ratio of chemically modified sgRNA:Cas9 mRNA at either a 1:1 or 1:2 w/w ratio as described below.
The LNPs were formed by an impinging jet mixing of the lipid in ethanol with two volumes of RNA solution and one volume of water. First, the lipid in ethanol is mixed through a mixing cross with the two volumes of RNA solution. Then, a fourth stream of water is mixed with the outlet stream of the cross through an inline tee. (See, e.g., WO2016010840, FIG. 2). The LNPs were held for 1 hour at room temperature, and further diluted with water (approximately 1:1 v/v). Diluted LNPs were buffer exchanged into 50 mM Tris, 45 mM NaCl, 5% (w/v) sucrose, pH 7.5 (TSS) and concentrated as needed by methods known in the art. The resulting mixture was then filtered using a 0.2 μm sterile filter. The final LNP was stored at 4° C. or −80° C. until further use.
Sprague-Dawley female rats, ranging from 6-10 weeks of age were used in each study. Animals were weighed and dosed based on individual body weight measured the morning of dosing. LNPs were dosed via the lateral tail vein in a volume of 2 mL per kilogram of animal body weight. The animals were periodically observed for adverse effects for at least 24 hours post dose.
For studies measuring in vivo editing in liver, Sprague-Dawley female rats were dosed at 0.1 mpk or 0.03 mpk, unless otherwise noted. Animals were euthanized at 6 or 7 days by carbon dioxide asphyxiation and a heart clip or by ex sanguination via cardiac puncture under isoflourane anesthesia. Blood was collected into serum separator tubes. Liver tissue was collected. Genomic DNA was isolated from the liver tissue for editing measurement by Next-Generation Sequencing (NGS).
In brief, to quantitatively determine the efficiency of editing at the target location in the genome, genomic DNA was isolated and deep sequencing was utilized to identify the presence of insertions and deletions introduced by gene editing.
PCR primers were designed around the target site (e.g., TTR), and the genomic area of interest was amplified. Additional PCR was performed according to the manufacturer's protocols (Illumina) to add the necessary chemistry for sequencing. The amplicons were sequenced on an Illumina MiSeq instrument. The reads were aligned to the […] after eliminating those having low quality scores. The resulting files containing the reads were mapped to the reference genome (BAM files), where reads that overlapped the target region of interest were selected and the number of wild type reads versus the number of reads which contain an insertion, substitution, or deletion was calculated.
The editing percentage (e.g., the “indel efficiency” or “percent indels” or “% editing” or “% indel”) can be defined as the total number of sequence reads with insertions or deletions over the total number of sequence reads, including wild type.
In vivo editing efficiency for materials delivered with formulations including various amine lipid (or ionizable lipid) compounds in Experiments 1 through 14 as described in Tables 3 and 4 was assessed. Editing was measured using G000534 (SEQ ID NO: 5) which targets the rat TTR gene. […]

[1] = Experiment 3, 0.1 mpk, LNP with PEG2K-DMG
[2] = Experiment 2, 0.1 mpk, LNP with PEG2K-DMG
[3] = Experiment 14, 0.03 mpk, LNP with C13 Ether
[4] = Experiment 4, 0.1 mpk, LNP with PEG2K-DMG
[5] = Experiment 9, 0.1 mpk, LNP with PEG2K-DMG

Row | Structure (SMILES) | Mean % editing [1] [%] | Mean % editing [4] [%] | Mean % editing [5] [%] | also measured
1 | CCCCCCCCOC(CCC(=O)OCC(COC(=O)CCC(OCCCCCCCC)OCCCCCCCC)COC(=O)OCCCN(CC)CC)OCCCCCCCC [Compound 1, 2-((((3-(diethylamino)propoxy)carbonyl)oxy)methyl)propane-1,3-diyl bis(4,4-bis(octyloxy)butanoate)] | 52.4 | – | – | –
2 | CCCCCCCCC(CCCCCCCC)OC(=O)CCCC(=O)OCC(COC(=O)CCCC(=O)OC(CCCCCCCC)CCCCCCCC)COC(=O)OCCCN(CC)CC [Compound 2, O,O′-(2-((((3-(diethylamino)propoxy)carbonyl)oxy)methyl)propane-1,3-diyl) di(heptadecan-9-yl) diglutarate] | 38.3 | – | – | Mean % editing [2]: 59.8%; Mean % editing [3]: 21.2%
3 | CCCCCCCCC(CCCCCCCC)OC(=O)CCCCCC(=O)OCC(COC(=O)CCCCCC(=O)OC(CCCCCCCC)CCCCCCCC)COC(=O)OCCCN(CC)CC [Compound 3, O′1,O1-(2-((((3-(diethylamino)propoxy)carbonyl)oxy)methyl)propane-1,3-diyl) 7,7′-di(heptadecan-9-yl) di(heptanedioate)] | – | – | – | Mean % editing [2]: 53.0%
4 | CCCCC/C=C\C/C=C\CCCCCCCC(=O)OCC(COC(=O)CCCCCC(=O)OCC(CCCC)CCCCCC)COC(=O)OCCCN(CC)CC (stereo not shown) [Compound 4, 1-(2-butyloctyl) 7-(3-(((3-(diethylamino)propoxy)carbonyl)oxy)-2-((((9Z,12Z)-octadeca-9,12-dienoyl)oxy)methyl)propyl) heptanedioate] | 29.7 | – | – | Mean % editing [2]: 27.2%
5 | CCCCCCC(CCCC)COC(=O)CCCCCC(=O)OCC(COC(=O)CCCCCC(=O)OCC(CCCC)CCCCCC)COC(=O)OCCCN(CC)CC (stereo not shown) [Compound 5, 7,7′-bis(2-butyloctyl) O′1,O1-(2-((((3-(diethylamino)propoxy)carbonyl)oxy)methyl)propane-1,3-diyl) di(heptanedioate)] | – | – | – | Mean % editing [2]: 52.0%
6 | CCCCCCCCC(CCCCCCCC)OC(=O)CCCC(=O)OCC(COC(=O)CCCC(=O)OC(CCCCCCCC)CCCCCCCC)COC(=O)NCCN(CC)CC [Compound 6, O,O′-(2-((((2-(diethylamino)ethyl)carbamoyl)oxy)methyl)propane-1,3-diyl) di(heptadecan-9-yl) diglutarate] | – | – | – | Mean % editing (Experiment 12, 0.04 mpk, LNP with PEG2K-DMG): 36.3%; Mean % editing (Experiment 13, 0.03 mpk, LNP with PEG2K-DMG): 25.0%; Mean % editing [3]: 22.4%; Mean % editing in rat liver (NGS, dose 0.03 mpk, LNP with G000534 sgRNA and Cas9 mRNA 1:2 w/w, 3% C13 Ether (Compound 53: 3% PEG2K-DMG), N=5 (Compound 33: N=4)): 30.4%; Mean % editing (Table 6, 0.03 mpk, PEG lipid C13 Ether): 27.4%; Mean % editing (Table 6, 0.03 mpk, PEG lipid C14 Ether): 18.9%; Mean % editing (Table 6, 0.03 mpk, PEG lipid PEG2K-DMG): 26.8%; Mean % editing (Table 8, 0.03 mpk, LNP with C13 Ether): 41.7%
7 | CCCCC/C=C\C/C=C\CCCCCCCC(=O)OCC(CCCCCCCCC(=O)OCC(CCCC)CCCCCC)COC(=O)OCCCN(CC)CC (stereo not shown) [Compound 7, 11-((2-butyloctyl)oxy)-2-((((3-(diethylamino)propoxy)carbonyl)oxy)methyl)-11-oxoundecyl (9Z,12Z)-octadeca-9,12-dienoate] | 30.0 | – | – | –
8 | CCCCCCCCC(CCCCCCCC)OC(=O)CCCCCCC(COC(=O)CCCC(=O)OC(CCCCCCCC)CCCCCCCC)COC(=O)OCCCN(CC)CC (stereo not shown) [Compound 8, 2-((((3-(diethylamino)propoxy)carbonyl)oxy)methyl)-9-(heptadecan-9-yloxy)-9-oxononyl heptadecan-9-yl glutarate] | 20.8 | – | – | –
9 | CCCCC/C=C\C/C=C\CCCCCCCC(=O)OCC(CCCCCCCCC(=O)OC(CCCCCCCC)CCCCCCCC)COC(=O)OCCCN(CC)CC (stereo not shown) [Compound 9, 2-((((3-(diethylamino)propoxy)carbonyl)oxy)methyl)-11-(heptadecan-9-yloxy)-11-oxoundecyl (9Z,12Z)-octadeca-9,12-dienoate] | 5.3 | 9.6 | 4.3 | –
10 | CCCCC/C=C\C/C=C\CCCCCCCC(=O)OCC(CCCCCCCCC(=O)OC(CCCCCCCC)CCCCCCCC)COC(=O)NCCN(CC)CC (stereo not shown) [Compound 10, 2-((((2-(diethylamino)ethyl)carbamoyl)oxy)methyl)-11-(heptadecan-9-yloxy)-11-oxoundecyl (9Z,12Z)-octadeca-9,12-dienoate] | – | 35.3 | – | –
11 | CCCCC/C=C\C/C=C\CCCCCCCC(=O)OCC(CCCCCCCCC(=O)OC(CCCCCCCC)CCCCCCCC)COC(=O)OCCCN(C)CC (stereo not shown) [Compound 11, 2-((((3-(ethyl(methyl)amino)propoxy)carbonyl)oxy)methyl)-11-(heptadecan-9-yloxy)-11-oxoundecyl (9Z,12Z)-octadeca-9,12-dienoate] | – | 14.0 | – | –
12 | CCCCC/C=C\C/C=C\CCCCCCCC(=O)OCC(CCCCC(=O)OC(CCCC)CCCC)COC(=O)NCCN(CC)CC (stereo not shown) [Compound 12, 2-((((2-(diethylamino)ethyl)carbamoyl)oxy)methyl)-7-(nonan-5-yloxy)-7-oxoheptyl (9Z,12Z)-octadeca-9,12-dienoate] | – | 11.6 | – | –
13 | CCCCC/C=C\C/C=C\CCCCCCCC(=O)OCC(CCCCC(=O)OC(CCCC)CCCC)COC(=O)OCCCN(C)CC (stereo not shown) [Compound 13, 2-((((3-(ethyl(methyl)amino)propoxy)carbonyl)oxy)methyl)-7-(nonan-5-yloxy)-7-oxoheptyl (9Z,12Z)-octadeca-9,12-dienoate] | – | 20.9 | – | –
14 | CCCCC/C=C\C/C=C\CCCCCCCC(=O)OCC(CCCCC(=O)OC(CCCC)CCCC)COC(=O)OCCCN(CC)CC (stereo not shown) [Compound 14, 2-((((3-(diethylamino)propoxy)carbonyl)oxy)methyl)-7-(nonan-5-yloxy)-7-oxoheptyl (9Z,12Z)-octadeca-9,12-dienoate] | – | 16.8 | – | –
15 | CCCCC/C=C\C/C=C\CCCCCCCC(=O)OCC(CCCCC(=O)OC(CCCCCCCC)CCCCCCCC)COC(=O)OCCCN(CC)CC (stereo not shown) [Compound 15, 2-((((3-(diethylamino)propoxy)carbonyl)oxy)methyl)-7-(heptadecan-9-yloxy)-7-oxoheptyl (9Z,12Z)-octadeca-9,12-dienoate] | – | – | 15.1 | –
16 | CCCCC/C=C\C/C=C\CCCCCCCC(=O)OCC(CCCCCCC(=O)OC(CCCCCCCC)CCCCCCCC)COC(=O)OCCCN(CC)CC (stereo not shown) [Compound 16, 2-((((3-(diethylamino)propoxy)carbonyl)oxy)methyl)-9-(heptadecan-9-yloxy)-9-oxononyl (9Z,12Z)-octadeca-9,12-dienoate] | – | – | 14.9 | –
17 | CCCCC/C=C\C/C=C\CCCCCCCC(=O)OCC(CCCCC(=O)OC(CCCCCC)CCCCCC)COC(=O)OCCCN(CC)CC (stereo not shown) [Compound 17, 2-((((3-(diethylamino)propoxy)carbonyl)oxy)methyl)-7-oxo-7-(tridecan-7-yloxy)heptyl (9Z,12Z)-octadeca-9,12-dienoate] | – | – | 35.8 | –
18 | CCCCC/C=C\C/C=C\CCCCCCCC(=O)OCC(CCCCCCC(=O)OC(CCCCCC)CCCCCC)COC(=O)OCCCN(CC)CC (stereo not shown) [Compound 18, 2-((((3-(diethylamino)propoxy)carbonyl)oxy)methyl)-9-oxo-9-(tridecan-7-yloxy)nonyl (9Z,12Z)-octadeca-9,12-dienoate] | – | – | 34.4 | –
19 | CCCCC/C=C\C/C=C\CCCCCCCC(=O)OCC(CCCCCCCCC(=O)OC(CCCCCC)CCCCCC)COC(=O)OCCCN(CC)CC (stereo not shown) [Compound 19, 2-((((3-(diethylamino)propoxy)carbonyl)oxy)methyl)-11-oxo-11-(tridecan-7-yloxy)undecyl (9Z,12Z)-octadeca-9,12-dienoate] | – | – | 14.4 | –
